Experimental data reported in patent publication US7265097B2, “Methods of drug delivery using sulphated chitinous polymers” (Chitogenics, Inc., priority 2002, dated 2007).

What was measured:
[1] = parameters: species or system rats; conditions: rat, in vivo
Description: The effect of S-NOCCs (N-sulphated N,O-carboxymethyl chitosans) as primary carriers in vivo was tested using rats. Male Wistar rats (SPF status, approximately 250 g) were obtained from Charles River (NL). The animals were fasted for 16 hours before administration with free access to water. The animals were anesthetized with Hypnorm (fentanyl citrate) and Dormicum (midazolam). The body temperature of the rats was kept at 36-37° C. and was monitored throughout the experiment.
Reviparin LMWH (Reviparin, Knoll, 108 Anti-XaU/mg) solution was prepared in physiological saline at 625 anti Xa U/ml.
S-NOCC was tested at two viscosities 40 and 60 cps (S-NOCC40 and S-NOCC60), representing a lower and higher molecular weight chitinous polymer respectively. The S-NOCCs were dissolved at 3% (w/v) in the reviparin solution to form a viscous gel.
In order to administer the LMWH formulations, a thin Teflon tube (˜1 mm i.d.) was used for the control (no polymer). In order to administer the S-NOCC formulations, a polypropylene tube with i.d. ˜3 mm was used to facilitate the viscous gels for their administration. Both tubes were connected to a syringe.
The abdomen of the animals was opened by an incision and the stomach was moved towards the incision point. A small incision at the stomach was made to allow each tube to be guided via the pylorus to the beginning of the duodenum (first 2-3 cm.). Formulation were administered slowly over 5 min and at +/− 2 ml normalized for the body weight of each animal to assure administration of 5000 Anti-Xa U/kg.
Blood samples, ˜225 μl, were collected from the tail vein capillaries (after incision) in Eppendorf vials containing 25 μl sodium citrate 3.8%. The samples were centrifuged at 13000 rpm for 20 min.
Analysis of samples was performed using the Chromostrate heparin Anti-Xa assay (Organon Teknika, NL). […] The release of pNA was measured by an end-point method at 405 nm in an EL808 ultra microplate reader (Biotek Instruments Inc.). […]

Caco-2 cells = test: TEER of Caco-2 cells treated with sulphated chitinous polymers; format: cell-based
Description: The Caco-2 intestinal epithelial cells used in this example form apically tight junctions that seal the paracellular pathways. Disruption of the tight junctions' barrier leads to increased paracellular permeability of hydrophilic drugs that are poorly absorbed across the intestine. The integrity of the tight junctions can be determined by measuring decreases in the transepithelial electrical resistance (TEER) when the tight junctions are opened.
Caco-2 cell cultures were seeded initially from cryovials (stored in liquid nitrogen) to flasks and treated with trypsin. After trypsin treatment, cells were seeded on the Costar Transwell filters (24-well plates, Costar Europe, Badhoevedorp, The Netherlands) at a seeding density of 10^4 cells/cm^2. Dulbecco's Modified Eagle's Medium (DMEM, Sigma, Bornem; Belgium; pH=7.4), supplemented with 1% nonessential amino acids, 10%, fetal calf serum (Hyclone, Greiner, The Netherlands), benzyl-penicillin G (160 U/ml) and streptomycin sulfate (100 μg/ml) (Sigma) was used as culture medium, and was added to both the donor and the acceptor compartment. […]
S-OCC(N-sulphated O-carboxymethyl chitosan), S-NOCC(N-sulphated N,O-carboxymethyl chitosan), and S-SAN (N-sulphated chitosan) were applied on the Caco-2 cell cultures and TEER was measured for 4 hours. […] The TEER was also recorded at 24 hrs after application to investigate the viability of the monolayers.

For Reviparin [reference compound], the “intestinal absorption of LMWH” value [1] was “limited”.
For Sulphated Chitosan [S-SAN], the “disruption of the tight junctions between Caco-2 epithelial cells” value (Caco-2 cells) was “able to effectively disrupt the tight junctions”.
For “N-sulphated N,O-carboxymethyl chitosan [S-NOCC40]”, the “absorption of the LMWH (plasma anti-Xa level, relative to antithrombotic level)” value [1] was at least 0.2 Anti-Xa U/ml and the “time over which absorption of LMWH was sustained” value [1] was 6 h.
